Target: DNA gyrase (Escherichia coli, UniProt P0AES4+P0AES6)
Experiment: Inhibition of Escherichia coli DNA gyrase supercoiling using relaxed pNO1 as substrate measured after 30 mins by SybrGOLD staining based fluorescence analysis
Format: protein-complex assay

SMILES | IC50
Cc1[nH]c(C(=O)N(Cc2ccccc2)c2nc3ccc(NC(=O)C(=O)O)cc3s2)c(Cl)c1Cl | 43 nM
CC(=O)Nc1ccc2c(c1)s/c(=N\C(=O)c1[nH]c(C)c(Cl)c1Cl)n2Cc1cccc(C(=O)O)c1 | 100 nM
CC(=O)Nc1ccc2nc(N(Cc3ccccc3)C(=O)c3[nH]c(C)c(Cl)c3Cl)sc2c1 | 90000 nM
CC(=O)Nc1ccc2nc(N(Cc3ccc(C(=O)O)cc3)C(=O)c3[nH]c(C)c(Cl)c3Cl)sc2c1 | 35000 nM
Cc1[nH]c(C(=O)N(Cc2ccc(C(=O)O)cc2)c2nc3ccc(NC(=O)C(=O)O)cc3s2)c(Cl)c1Cl | 1000 nM
CC(=O)Nc1ccc2nc(N(Cc3cccc(C(=O)O)c3)C(=O)c3[nH]c(C)c(Cl)c3Cl)sc2c1 | 54000 nM
CC(=O)Nc1ccc2nc(N(CCc3ccccc3)C(=O)c3[nH]c(C)c(Cl)c3Cl)sc2c1 | 162000 nM
Cc1[nH]c(C(=O)/N=c2\sc3cc(NC(=O)C(=O)O)ccc3n2CCc2ccccc2)c(Cl)c1Cl | 100 nM
Cc1[nH]c(C(=O)N(CCc2ccccc2)c2nc3ccc(NC(=O)C(=O)O)cc3s2)c(Cl)c1Cl | 2200 nM

Results, then the compound that gave them:

IC50 | SMILES
620 nM | CC(=O)Nc1ccc2c(c1)s/c(=N\C(=O)c1[nH]c(C)c(Cl)c1Cl)n2CCc1ccccc1
600 nM | CC(=O)Nc1ccc2c(c1)s/c(=N\C(=O)c1[nH]c(C)c(Cl)c1Cl)n2Cc1ccc(C(=O)O)cc1
320 nM | Cc1[nH]c(C(=O)/N=c2\sc3cc(NC(=O)C(=O)O)ccc3n2Cc2ccc(C(=O)O)cc2)c(Cl)c1Cl
5800 nM | CC(=O)Nc1ccc2c(c1)s/c(=N\C(=O)c1[nH]c(C)c(Cl)c1Cl)n2Cc1ccccc1
2800 nM | Cc1[nH]c(C(=O)N(Cc2cccc(C(=O)O)c2)c2nc3ccc(NC(=O)C(=O)O)cc3s2)c(Cl)c1Cl
18 nM | Cc1[nH]c(C(=O)/N=c2\sc3cc(NC(=O)C(=O)O)ccc3n2Cc2ccccc2)c(Cl)c1Cl
13 nM | Cc1[nH]c(C(=O)/N=c2\sc3cc(NC(=O)C(=O)O)ccc3n2Cc2cccc(C(=O)O)c2)c(Cl)c1Cl

Source: ChEMBL document CHEMBL5550182, “Exploring the interaction of N-(benzothiazol-2-yl)pyrrolamide DNA gyrase inhibitors with the GyrB ATP-binding site lipophilic floor: A medicinal chemistry and QTAIM study” (Bioorg Med Chem, 2024)
